The target of the assay is T1, mouse melanopsin (Mus musculus, UniProt Q9QXZ9).
T1 construct: the C-terminal amino acid residues (94, 140, 200, 214, 296, and 308 residues); expressed in transfected cells; host or cells: COS-1
Briefly: GsX GloSensor assay with Gsα/i11. The assay is classed as cell-based. As to conditions: 16.7 μM AA92593; COS-1 cells. From the text:
Previous studies of human and mouse melanopsins reported that these melanopsins can activate not only Gq but Gs and Gi ([20], [21], [22]). Thus, we assessed the effect of AA92593 on Gsα WT or Gsα/i11 (with 11 C-terminal sequence of Giα) using the GsX GloSensor assay. In agreement with the promiscuous G protein-coupling of melanopsins, we observed light-dependent increase of GloSensor luminescence in COS-1 cells expressing Gsα or Gsα/i11 with human/mouse melanopsins (Fig. 1, G–J).
For GloSensor assay, opsins, GloSensor assay sensor (coded by pGlo-22F), and NanoBiT-tagged G proteins were transiently expressed in COS-1 cells (kindly provided from Dr David Farrens, Oregon Health and Science University) using PEI as described previously ([24], [52]). […] For GFP-fluorescence microscopy, a 35-mm cell culture dish (IWAKI) was transfected with 2 μg melanopsin-GFP plasmid and 8 μg PEI in 400 μl Opti-mem and 1.2 ml D-MEM. […]
The transfected COS-1 cells were incubated at 37 °C, 5% CO2 for 2 days, and the medium was aspirated and exchanged with 50 μl of HBSS (145 mM NaCl, 10 mM D-glucose, 5 mM KCl, 1 mM MgCl2, 1.7 mM CaCl2, 1.5 mM NaHCO3, 10 mM Hepes, pH 7.4), containing 33.3, 20, 10, 2, 0.2, 0.02, 0.002, or 0 μM AA92593, 0.5% dimetyl sulfoxide (DMSO), and 4% (vol/vol) GloSensor cAMP reagent stock solution. […] Luminescence was measured using GM-2000 or GM-3510 microplate reader (Promega). […]

Structures are written as SMILES.

T1 sequence (Q9QXZ9 1-381 limits assumed): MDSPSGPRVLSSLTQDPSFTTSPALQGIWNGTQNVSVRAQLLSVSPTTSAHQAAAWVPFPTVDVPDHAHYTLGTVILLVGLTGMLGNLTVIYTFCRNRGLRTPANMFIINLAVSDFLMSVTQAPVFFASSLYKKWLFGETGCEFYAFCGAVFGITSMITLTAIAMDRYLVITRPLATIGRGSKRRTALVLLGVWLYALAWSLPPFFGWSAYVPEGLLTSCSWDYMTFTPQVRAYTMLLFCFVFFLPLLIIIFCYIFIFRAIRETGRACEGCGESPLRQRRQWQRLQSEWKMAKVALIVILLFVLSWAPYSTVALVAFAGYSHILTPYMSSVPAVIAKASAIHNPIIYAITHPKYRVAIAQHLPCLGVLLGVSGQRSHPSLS

Turning to `COc1ccc(S(=O)(=O)N2CCCCC2)cc1C` [AA92593], the “effect on melanopsin-induced cAMP responses via Gsα/i11” value was “can suppress”.
